Where two headings read alike, the source gives them in different places. Marks after values point to notes of the source that are not given here.
Experiments:
in vivo = conditions: rat
OX1 receptor = molecular target: T1, OX1 receptor (Homo sapiens, UniProt O43613); experiment: Orexin target function test (Cisbio HTRF IP-one), CHO-K1-OX1 cells, antagonism of EC80 Orexin A; type: cell-based
T1 construct: host or cells: CHO-K1
T1 sequence (O43613 1-425): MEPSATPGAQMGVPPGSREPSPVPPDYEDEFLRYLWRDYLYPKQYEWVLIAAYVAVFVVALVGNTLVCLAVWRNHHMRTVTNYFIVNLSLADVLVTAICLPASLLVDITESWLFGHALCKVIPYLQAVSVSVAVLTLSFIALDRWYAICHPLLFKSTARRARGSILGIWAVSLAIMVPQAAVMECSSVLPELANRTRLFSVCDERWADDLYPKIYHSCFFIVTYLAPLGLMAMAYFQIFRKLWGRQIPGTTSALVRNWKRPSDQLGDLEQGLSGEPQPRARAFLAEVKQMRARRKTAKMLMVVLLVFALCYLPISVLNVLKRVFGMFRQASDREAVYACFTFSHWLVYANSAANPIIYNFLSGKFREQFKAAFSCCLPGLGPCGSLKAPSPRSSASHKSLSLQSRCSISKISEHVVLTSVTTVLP
Method: (§1) Using Cisbio HTRF IP-one kit to detect the changes in IP-one concentration of orexin receptor (OX1/OX2) signaling pathway by microplate reader, and calculating the IC50 value of the compound to evaluate the antagonistic effect of the compound on OX1 and OX2 receptors.
(§2) The cells were centrifuged at 1000 rpm for 5 minutes and the supernatant was discarded. 3 mL of PBS was added, and gently blown with a pipette to mix. After centrifugation at 1000 rpm for 5 minutes again, the supernatant was discarded. […] Based on the antagonistic effect values of the compound samples at different concentrations, the GraphPad Prism software was used to fit the orexin receptor antagonism curve of the compound samples and calculate the IC50.

OX2 receptor = molecular target: T2, OX2 receptor (Homo sapiens, UniProt O43614); experiment: Orexin target function test (Cisbio HTRF IP-one), CHO-K1-OX2 cells, antagonism of EC80 Orexin 2 receptor agonist; type: cell-based
T2 construct: host or cells: CHO-K1
T2 sequence (O43614 1-444): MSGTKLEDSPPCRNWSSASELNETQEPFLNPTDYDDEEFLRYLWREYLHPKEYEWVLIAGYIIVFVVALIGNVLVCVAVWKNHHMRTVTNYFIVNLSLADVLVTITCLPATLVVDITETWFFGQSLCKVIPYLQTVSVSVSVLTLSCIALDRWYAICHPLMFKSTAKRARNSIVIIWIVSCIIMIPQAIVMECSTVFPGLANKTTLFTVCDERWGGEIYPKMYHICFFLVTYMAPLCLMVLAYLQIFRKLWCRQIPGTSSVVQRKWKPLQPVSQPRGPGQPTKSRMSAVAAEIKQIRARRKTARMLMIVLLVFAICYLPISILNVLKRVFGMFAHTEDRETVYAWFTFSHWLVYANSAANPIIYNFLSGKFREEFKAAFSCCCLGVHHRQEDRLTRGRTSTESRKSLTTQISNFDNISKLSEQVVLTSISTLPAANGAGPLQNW
Method: as §1, §2

SD rats = experiment: Autonomous activity of rats; type: in vivo
Method: The animals were placed in the test box immediately after administration, and the activity distance of the animals within 60 minutes was recorded and analyzed using Top Scan Version 3.0. […] The experimental data were expressed by mean ± standard deviation (Mean ± SD), and SPSS 21.0 statistical software was used for one-way analysis of variance. The Dunnett's test was used for pairwise comparison, and p<0.05 was represented as *.

[1] = Blood-brain barrier permeability of the test substance in rats; conditions: male, SD, rat, oral, 30 mg/kg
Method: Twelve male SD rats were randomly divided into 4 groups, with 3 rats in each group. They were fasted for 8 hours before the test and had free access to water. The rats were intragastrically administered with 30 mg/kg of the test substance solution, and 0.3 mL of blood was collected from the jugular venous plexus of the rats before and 0.25 hours after administration. The rats were then anesthetized, the chest cavity was opened, the right atrial appendage was cut, and the blood was rapidly perfused from the back of the left ventricle. When the outflowing liquid was transparent and bloodless, the perfusion could be stopped, and the brain tissue was removed, dried with filter paper, weighed, and homogenized with an appropriate amount of physiological saline (1:4, v/v) to prepare a brain tissue homogenate. The whole blood sample was centrifuged at 4000 r/min for 10 min to separate the plasma.
The established LC-MS/MS method is used to detect the concentration of the test substance in plasma and brain tissue homogenate. The brain-to-blood ratio (Kb/p) of the test substance can be obtained by dividing the drug concentration in brain tissue by the drug concentration in plasma.

[2] = CHO-K1-OX1 cells, IP-one, read-out: hOXIR IC50
[3] = CHO-K1-OX2 cells, IP-one, read-out: hOX2R IC50
[4] = ratio of OX1R IC50 to OX2R IC50
[5] = male SD rats, dose 10 mg/kg, versus blank vehicle group
[6] = male SD rats, dose 10 mg/kg, within 60 minutes, Mean ± SD
[7] = male SD rats, dose 30 mg/kg, versus blank vehicle group
[8] = male SD rats, dose 30 mg/kg, within 60 minutes, Mean ± SD
[9] = male SD rats, dose 50 mg/kg, versus blank vehicle group
[10] = male SD rats, dose 50 mg/kg, within 60 minutes, Mean ± SD

| Compound | AUC(0-t) (in vivo; male, SD, plasma, iv, 1 mg/kg) [µg·h/mL] | Cmax (in vivo; male, SD, plasma, iv, 1 mg/kg) [µg/mL] | AUC(0-t) (in vivo; male, SD, plasma, po, 30 mg/kg) [µg·h/mL] | Cmax (in vivo; male, SD, plasma, po, 30 mg/kg) [µg/mL] | bioavailability (in vivo; male, SD, plasma, po, 30 mg/kg) [%] | IC50 (OX1 receptor; [2]) [µM] | IC50 (OX2 receptor; [3]) [µM] | Selectivity (OX2 receptor; [4]) | Selectivity (OX2 receptor) | other results |
| --- | --- | --- | --- | --- | --- | --- | --- | --- | --- | --- |
| COc1ccc(C(=O)N2CC3C=C(c4nc(C)cnc4OC)CC3C2)c(-c2ncccn2)c1 (stereo not drawn) [Compound 48, [4-methoxy-2-(pyrimidin-2-yl)phenyl][5-(3-methoxy-6-methylpyrazin-2-yl)-3,3a,4,6a-tetrahydrocyclopenta[c]pyrrol-2(1H)-yl]methanone] | 0.886 | 3.31 | 10.1 | 9.41 | 37.8 | 3.25 | 0.021 | 154 | – | – |
| COc1nc(C2=CC3CN(C(=O)c4c(F)cccc4-n4nccn4)CC3C2)nc(C)c1F (stereo not drawn) [Compound 8, (5-(5-fluoro-4-methoxy-6-methylpyrimidin-2-yl)-3,3a,4,6a-tetrahydrocyclopenta[c]pyrrol-2(1H)-yl)(2-fluoro-6-(2H-1,2,3-triazol-2-yl)phenyl)methanone] | 0.807 | 3.22 | 16.9 | 13.8 | 69.8 | 1.24 | 0.012 | 100 | – | – |
| CCOc1ccc(C(=O)N2CC3C=C(c4nc(C)cnc4OC)CC3C2)c(-n2nccn2)c1 (stereo not drawn) [Compound 45, [4-ethoxy-2-(2H-1,2,3-triazol-2-yl)phenyl][5-(3-methoxy-6-methylpyrazin-2-yl)-3,3a,4,6a-tetrahydrocyclopenta[c]pyrrol-2(1H)-yl]methanone] | 1.56 | 2.52 | 36 | 19.6 | 77.1 | 3 | 0.025 | 125 | – | – |
| Cc1nc(C2=CC3CN(C(=O)c4ccc(F)cc4-n4nccn4)CC3C2)nc(C)c1F (stereo not drawn) [Compound 2, (4-fluoro-2-(2H-1,2,3-triazol-2-yl)phenyl)(5-(5-fluoro-4,6-dimethylpyrimidin-2-yl)-3,3a,4,6a-tetrahydrocyclopenta[c]pyrrol-2(1H)-yl)methanone] | 0.869 | 1.88 | 15 | 7.48 | 57.6 | – | – | – | 128 | IC50 (OX1 receptor): 2.3 µM; Activity distance (mm) (SD rats; rat, in vivo, 10 mg/kg): 52097.9±18671.68 mm; Inhibition rate(%) (SD rats; rat, in vivo, 10 mg/kg): 26.66* %; Activity distance (mm) (SD rats; rat, in vivo, 30 mg/kg): 46276.83±15906.44 mm; Inhibition rate(%) (SD rats; rat, in vivo, 30 mg/kg): 34.85 * %; Activity distance (mm) (SD rats; rat, in vivo, 50 mg/kg): 37866.51±7149.48 mm; Inhibition rate(%) (SD rats; rat, in vivo, 50 mg/kg): 46.69* %; IC50 (OX2 receptor): 0.018 µM |
| COc1cc(-n2nccn2)c(C(=O)N2CC3C=C(c4nc(C)c(F)c(C)n4)CC3C2)cn1 (stereo not drawn) [Compound 22] | – | – | – | – | – | – | – | – | 185 | AUC(0-t) (in vivo; in vivo, iv, 1 mg/kg): 0.305 µg·h/mL; Cmax (in vivo; in vivo, iv, 1 mg/kg): 0.943 µg/mL; AUC(0-t) (in vivo; in vivo, po, 30 mg/kg): 2.64 µg·h/mL; Cmax (in vivo; in vivo, po, 30 mg/kg): 1.94 µg/mL; bioavailability (in vivo; in vivo, po, 30 mg/kg): 28.9%; IC50 (OX1 receptor): 2.78 µM; Activity distance (mm) (SD rats; rat, in vivo, 10 mg/kg): 43970.97±9243.91 mm; Inhibition rate(%) (SD rats; rat, in vivo, 10 mg/kg): 38.10* %; Activity distance (mm) (SD rats; rat, in vivo, 30 mg/kg): 37396.46±6850.26 mm; Inhibition rate(%) (SD rats; rat, in vivo, 30 mg/kg): 47.35* %; Activity distance (mm) (SD rats; rat, in vivo, 50 mg/kg): 33132.59±9708.72 mm; Inhibition rate(%) (SD rats; rat, in vivo, 50 mg/kg): 56.36* %; IC50 (OX2 receptor): 0.015 µM |
| Cc1nc(C2=CC3CN(C(=O)c4c(F)cccc4-n4nccn4)CC3C2)nc(C)c1CF (stereo not drawn) [Compound 38, (2-fluoro-6-(2H-1,2,3-triazol-2-yl)phenyl)(5-(5-(fluoromethyl)-4,6-dimethylpyrimidin-2-yl)-3,3a,4,6a-tetrahydrocyclopenta[c]pyrrol-2(1H)-yl)methanone] | – | – | – | – | – | 1.8 | 0.022 | 82 | – | – |
| COc1ncc(C)nc1C1=CC2CN(C(=O)c3ccc(F)cc3-n3cccn3)CC2C1 (stereo not drawn) [Compound 61, [4-fluoro-2-(1H-pyrazol-1-yl)phenyl][5-(3-methoxy-6-methylpyrazin-2-yl)-3,3a,4,6a-tetrahydrocyclopenta[c]pyrrol-2(1H)-yl]methanone] | 0.737 | 1.92 | 5.4 | 5.69 | 24.4 | 2.1 | 0.014 | – | 150 | – |
| Cc1nc(C2=CC3CN(C(=O)c4c(F)cccc4-n4nccn4)CC3C2)nc2c1COC2 (stereo not drawn) [Compound 20, (2-fluoro-6-(2H-1,2,3-triazol-2-yl)phenyl)(5-(4-methyl-5,7-dihydrofuro[3,4-d]pyrimidin-2-yl)-3,3a,4,6a-tetrahydrocyclopenta[c]pyrrol-2(1H)-yl)methanone] | – | – | – | – | – | 3.17 | 0.0245 | 129 | – | Inhibition rate(%) (SD rats; [5]): 14.67%; Activity distance (mm) (SD rats; [6]): 60610.23±1657.26 mm; Inhibition rate(%) (SD rats; [7]): 24.24* %; Activity distance (mm) (SD rats; [8]): 53815.36±1401.21 mm; Inhibition rate(%) (SD rats; [9]): 31.17* %; Activity distance (mm) (SD rats; [10]): 48892.70±2164.16 mm |
| CCOc1ncc(C)nc1C1=CC2CN(C(=O)c3ccc(OC)cc3-n3nccn3)CC2C1 (stereo not drawn) [Compound 46, [5-(3-ethoxy-6-methylpyrazin-2-yl)-3,3a,4,6a-tetrahydrocyclopenta[c]pyrrol-2(1H)-yl][4-methoxy-2-(2H-1,2,3-triazol-2-yl)phenyl]methanone] | – | – | – | – | – | – | – | – | – | concentration at 0.25 h ([1]; brain): 210 ng/g; Kp at 0.25 h ([1]; brain/plasma): 0.43; concentration at 0.25 h ([1]; plasma): 0.485 µg/mL |
| COc1nc(C2=CC3CN(C(=O)c4ccccc4-n4nccn4)CC3C2)nc(C)c1F (stereo not drawn) [Compound 27, (2-(2H-1,2,3-triazol-2-yl)phenyl)(5-(5-fluoro-4-methoxy-6-methylpyrimidin-2-yl)-3,3a,4,6a-tetrahydrocyclopenta[c]pyrrol-2(1H)-yl)methanone] | – | – | – | – | – | 1.68 | 0.02 | 84 | – | – |
| [2H]C([2H])([2H])Oc1ccc(C(=O)N2CC3C=C(c4nc(C)cnc4OC)CC3C2)c(-n2nccn2)c1 (stereo not drawn) [Compound 57, [5-(3-methoxy-6-methylpyrazin-2-yl)-3,3a,4,6a-tetrahydrocyclopenta[c]pyrrol-2(1H)-yl][4-(methoxy-d3)-2-(2H-1,2,3-triazol-2-yl)phenyl]methanone] | – | – | – | – | – | 3.16 | 0.018 | 176 | – | – |
| Cc1nc(C2=CC3CN(C(=O)c4c(F)cccc4-n4nccn4)CC3C2)nc(C)c1F (stereo not drawn) [Compound 1, (5-(5-fluoro-4,6-dimethylpyrimidin-2-yl)-3,3a,4,6a-tetrahydrocyclopenta[c]pyrrol-2(1H)-yl)(2-fluoro-6-(2H-1,2,3-triazol-2-yl)phenyl)methanone] | – | – | – | – | – | 1.13 | 0.014 | – | 80 | Inhibition rate(%) (SD rats; [5]): 16.33%; Activity distance (mm) (SD rats; [6]): 59434.65±1478.32 mm; Inhibition rate(%) (SD rats; [7]): 23.37* %; Activity distance (mm) (SD rats; [8]): 54433.35±3341.26 mm; Inhibition rate(%) (SD rats; [9]): 59.81* %; Activity distance (mm) (SD rats; [10]): 28548.56±1238.05 mm |
| COc1ccc(C(=O)N2CC3C=C(c4nc(C)c(F)c(C)n4)CC3C2)c(-n2nccn2)c1 (stereo not drawn) [Compound 5, (5-(5-fluoro-4,6-dimethylpyrimidin-2-yl)-3,3a,4,6a-tetrahydrocyclopenta[c]pyrrol-2(1H)-yl)(4-methoxy-2-(2H-1,2,3-triazol-2-yl)phenyl)methanone] | 0.738 | 1.6 | 18.5 | 13.8 | 83.6 | – | – | – | 171 | IC50 (OX1 receptor): 2.8 µM; Activity distance (mm) (SD rats; rat, in vivo, 10 mg/kg): 44396.01±2185.62 mm; Inhibition rate(%) (SD rats; rat, in vivo, 10 mg/kg): 37.50* %; Activity distance (mm) (SD rats; rat, in vivo, 30 mg/kg): 32526.47±1464.45 mm; Inhibition rate(%) (SD rats; rat, in vivo, 30 mg/kg): 45.79* %; IC50 (OX2 receptor): 0.016 µM |

From patent publication EP4635949A1 (Jiangsu NHWA Pharmaceutical Co., Ltd, priority 2022, dated 2024)
